Our source for the IC50 values is patent publication US9447114B2, “Thieno- and furo[2,3-d]pyrimidine-2,4[1H,3H]-dione derivatives” (Hydra Biosciences, Inc., priority 2014, dated 2016).

Assay [1] concerns the target T1, TRPC5 channel (Homo sapiens (Human), UniProt Q9UL62). The assay can be described thus: Whole-cell patch clamp of TRPC5 current. The format is cell-based. As to conditions: TRPC5-expressing HEK293 TREx cells, current activated by 80 μM LaCl3 and 1.4 μM free Ca2+ in pipette, IC50 estimated. From the text:
Patch clamp experiments permit the detection of currents through the TRPC5 channel in the cell line described above. In normal whole-cell patch clamp recordings, a glass electrode is brought into contact with a single cell and a high-resistance (gigaohm) seal is established with the cell membrane. The membrane is then ruptured to achieve the whole-cell configuration, permitting control of the voltage of the cell membrane and measurement of currents flowing across the membrane using the amplifier attached to the electrode and resulting in the replacement of cytoplasm with the pipette solution. A perfusion system permits control of the extracellular solution, including the addition of blockers and activators of the current. The current can be activated by including 1.4 μM free Ca^2+ in the pipette (intracellular) solution, and 80 μM LaCl3 in the extracellular solution.
TRPC5 cells were induced 20-48 hours, removed from growth plates, and replated at low density (to attain good single-cell physical separation) on glass coverslips for measurement. In some cases, cells were grown in low density overnight on glass coverslips. Patch clamp recordings were made in the whole-cell mode with a holding potential of −40 mV. Every 5 seconds, a voltage ramp was applied from −120 to +100 mV, 400 ms in duration. Currents elicited were quantified at −80 mV and +80 mV. The internal solution consisted of 140 mM cesium aspartate, 10 mM HEDTA, 2 mM CaCl2, 2.27 mM MgCl2 and 10 mM HEPES, pH 7.2, with 1,400 nM calculated free Ca^2+. The external solution consisted of 150 mM NaCl, 4.5 mM KCl, 1 mM MgCl2, 2 mM CaCl2 10 mM HEPES, 10 mM glucose, 1 mM EGTA, pH 7.4. Upon addition of LaCl3, TRPC5 current was induced only in TRPC5-expressing cells and not in parental HEK293 TREx cells. Removal of the LaCl3 stimulus causes most of the current to go away. Potential blockers were tested for ability to block both inward and outward currents in the continued presence of LaCl3.
IC50 of a compound of Formula (I) was estimated by testing the compound at 5 μM and 500 nM. […] IC50 for a compound of Formula (I) between 500 nM and 5 μM was similarly estimated.

Assay [2] addresses T1, TRPC5 channel. In words: High throughput screening assay: intracellular Ca2+ rise, Fluo4 cell-based fluorescence. As to conditions: HEK293/TREx cells inducibly expressing TRPC5, high-Ca2+ Ringer, 14 mM Ca2+ final, triplicate, 0.027-20 μM. The text has this: The assay depended on detection of the rise in intracellular Ca2+ concentration ([Ca2+]i) following channel activation in cells inducibly expressing the TRPC5 channel. Ca2+ rise was quantified with the use of fluorescent Ca2+ indicators that were loaded into cells and thereafter indicated the [Ca2+]i Ca2+ influx followed activation of the TRPC5 channel. Compounds inhibiting the [Ca2+]i rise were considered hits for further investigation.
The commercially available HEK293/TREx line (Invitrogen) was stably transfected with a TRPC5 construct and screened by conventional calcium imaging to find clones with TRPC5 expression following stimulation with 1 μg/ml tetracycline. These cells were maintained in the growth medium recommended by the manufacturer supplemented with 100 μg/ml hygromycin to promote retention of the TRPC5 construct. After growing to near confluency, cells were plated at a density of ˜35,000 cells/well in 384 well CellBind plates (Corning) in the presence of 1 μg/ml tetracycline, and allowed to grow for 20-30 hrs. A nearly confluent monolayer resulted. Cells were then loaded with Ca2+ dye: Fura-2/AM or Fluo4/AM was added to the wells to a final concentration of 4 μM or 0.5 μM, respectively, and incubated for 80 min or 60 min, respectively, at room temperature. Supernatant was then removed from the cells by inverting plates with a sharp flick, and 25 μl Hank's Balanced Salt Solution (HBSS; 0.185 g/l D-glucose, 0.9767 g/l MgS04 (anhydrous), 0.4 g/l KCl, 0.06 g/l KH2PO4 (anhydrous), 0.35 g/l NaHCO3, 8.0 g/l NaCl, and 0.04788 g/l Na2HPO4 (anhydrous); pH 7.4) was then added to each well. Following ˜0.5 hour for recovery from loading, cells were assayed using the Hamamatsu FDSS 6000 system, which permitted illumination alternately at 340 nm and 380 nm for Fura-2 experiments, or at 485 nm for Fluo4 experiments. Frames were acquired at a rate of 0.2 Hz. During the assay, the plates were continuously vortexed, with pipette mixing of wells following addition of each reagent. For the screening assay, 26 μl of a diluted compound stock (at 50 μM) was added to each well for 2 minutes following the collection of a short (4 frame) baseline. 13 μl 62 mM high-Ca2+Ringer solution (4.17 ml of normal ringer (with 2 mM Ca2+) plus 5.83 ml of isotonic calcium ringer (105 mM Ca2+; in this ringer all sodium has been replaced with calcium)) was then added to each well, achieving a final concentration of 14 mM Ca2+ and 10 μM test compound. Data was collected for ˜3 minutes following addition of high Ca2+Ringer, where the fluorescent intensity (for Fluo4) and the F340/F380 ratio (for Fura-2) were proportional to the [Ca2+]i Negative controls consisted of HEK293/TREx TRPC5 cells exposed to high Ca2+ solution, but no compound. Positive control conditions consisted of addition of 2-APB, a promiscuous blocker of TRPC5 and other channels, to columns 23 and 24 of the plates, to a final concentration of 200 μM. These controls defined a screening window, and “hits” were defined as those compounds inhibiting the fluorescence response by at least 40%. IC50 values were determined for compounds defined as “hits.” The Fluo4 cell-based fluorescence assay was used to determine the intracellular Ca2+ concentration in the presence of varying drug concentration. Final concentrations of compounds tested were 20 μM, 6.667 μM, 2.222 μM, 0.741 μM, 0.247 μM, 0.082 μM, and 0.027 μM. Compounds were tested in triplicate at all concentrations. Standard software was used to fit IC50 curves.
Additionally or alternatively, efficacy can be represented as % inhibition in the presence (of a given concentration of compound) versus the absence of compound or in comparison to a control compound. For example, efficacy can be represented as % inhibition of ion flux in the presence versus the absence of compound.

T1 sequence (Q9UL62 whole entry): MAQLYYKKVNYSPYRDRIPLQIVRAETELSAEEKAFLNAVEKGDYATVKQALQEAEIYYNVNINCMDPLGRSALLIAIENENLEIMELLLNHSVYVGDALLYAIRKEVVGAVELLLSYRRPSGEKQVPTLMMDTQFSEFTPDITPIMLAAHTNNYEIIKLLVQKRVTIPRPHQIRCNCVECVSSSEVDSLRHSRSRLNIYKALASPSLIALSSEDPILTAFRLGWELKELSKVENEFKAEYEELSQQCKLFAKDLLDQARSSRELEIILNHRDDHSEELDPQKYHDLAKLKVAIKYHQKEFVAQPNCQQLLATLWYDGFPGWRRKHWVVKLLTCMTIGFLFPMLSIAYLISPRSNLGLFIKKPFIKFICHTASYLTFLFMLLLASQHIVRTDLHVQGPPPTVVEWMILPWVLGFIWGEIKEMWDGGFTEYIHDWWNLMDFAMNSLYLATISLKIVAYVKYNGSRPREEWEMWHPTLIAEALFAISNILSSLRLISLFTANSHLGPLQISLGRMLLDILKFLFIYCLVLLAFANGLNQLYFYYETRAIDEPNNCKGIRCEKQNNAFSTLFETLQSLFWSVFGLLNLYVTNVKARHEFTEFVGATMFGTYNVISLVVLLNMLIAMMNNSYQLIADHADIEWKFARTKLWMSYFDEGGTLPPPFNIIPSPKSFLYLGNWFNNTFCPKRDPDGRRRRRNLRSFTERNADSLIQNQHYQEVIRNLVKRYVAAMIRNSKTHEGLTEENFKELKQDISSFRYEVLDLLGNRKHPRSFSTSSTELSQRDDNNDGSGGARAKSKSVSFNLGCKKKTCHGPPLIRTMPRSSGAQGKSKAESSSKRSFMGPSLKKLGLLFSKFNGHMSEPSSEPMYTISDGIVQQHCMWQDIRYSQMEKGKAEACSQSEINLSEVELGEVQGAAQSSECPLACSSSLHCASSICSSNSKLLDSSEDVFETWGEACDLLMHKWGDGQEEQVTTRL

On to `Cn1c(=O)n(CCCO)c(=O)c2c(Cc3ccc(Cl)cc3)c(Oc3cccc(OC(F)(F)F)c3)sc21` [Compound 1, 5-(4-chlorobenzyl)-3-(3-hydroxypropyl)-1-methyl-6-(3-(trifluoromethoxy)phenoxy)thieno[2,3-d]pyrimidine-2,4(1H,3H)-dione], for which the IC50 at TRPC5 channel [1] is less than 1 nM; against TRPC5 channel [2], 584 nM.

Consider `Cn1c(=O)n(CCCO)c(=O)c2c(Cc3ccc(Cl)cc3)c(Oc3cccc(Cl)c3)sc21` [Compound 2, 5-(4-chlorobenzyl)-6-(3-chlorophenoxy)-3-(3-hydroxypropyl)-1-methylthieno[2,3-d]pyrimidine-2,4(1H,3H)-dione], for which the IC50 on TRPC5 channel [1] was less than 1 nM; against TRPC5 channel [2] it was 117 nM. On TRPC5 channel [2], `CC(C)CCc1c(-c2cccc(OC(F)(F)F)c2)sc2c1c(=O)n(CCCO)c(=O)n2C` [Compound 3, 3-(3-hydroxypropyl)-5-isopentyl-1-methyl-6-(3-(trifluoromethoxy)phenyl)thieno[2,3-d]pyrimidine-2,4(1H,3H)-dione] showed an IC50 of 340 nM. `Cn1c(=O)n(CCCO)c(=O)c2c(C(O)c3ccc(Cl)cc3)c(-c3cccc(Cl)c3)sc21` (centres unmarked) [Compound 4, 6-(3-chlorophenyl)-5-((4-chlorophenyl) (hydroxy)methyl)-3-(3-hydroxypropyl)-1-methylthieno[2,3-d]pyrimidine-2,4(1H,3H)-dione] had an IC50 at TRPC5 channel [2] of 55 nM. On TRPC5 channel [2], `Cc1c(-c2ccc(Cl)c(Cl)c2)sc2c1c(=O)n(CCCO)c(=O)n2C` [Compound 5, 6-(3,4-dichlorophenyl)-3-(3-hydroxypropyl)-1,5-dimethylthieno[2,3-d]pyrimidine-2,4(1H,3H)-dione] yielded a half-maximal inhibitory concentration (IC50) of less than 27 nM. With `Cc1c(-c2ccc(F)c(C(F)(F)F)c2)sc2c1c(=O)n(CCCO)c(=O)n2C` [Compound 6, 6-(4-fluoro-3-(trifluoromethyl)phenyl)-3-(3-hydroxypropyl)-1,5-dimethylthieno[2,3-d]pyrimidine-2,4(1H,3H)-dione], the IC50 against TRPC5 channel [2] is less than 27 nM. With `Cc1c(-c2ccc3ccccc3c2)sc2c1c(=O)n(CCCO)c(=O)n2C` [Compound 7, 3-(3-hydroxypropyl)-1,5-dimethyl-6-(naphthalen-2-yl)thieno[2,3-d]pyrimidine-2,4(1H,3H)-dione], half-maximal inhibition on TRPC5 channel [2] (IC50) required 34.9 nM. On to `Cc1c(-c2cncc(Cl)c2)sc2c1c(=O)n(CCCO)c(=O)n2C` [Compound 8, 6-(5-chloropyridin-3-yl)-3-(3-hydroxypropyl)-1,5-dimethylthieno[2,3-d]pyrimidine-2,4(1H,3H)-dione], for which half-maximal inhibition on TRPC5 channel [2] (IC50) was put at 1700 nM. Still for that read-out and setting: the same measure for `Cc1c(-c2ccccc2OC(F)(F)F)sc2c1c(=O)n(CCCO)c(=O)n2C` [Compound 13, 3-(3-hydroxypropyl)-1,5-dimethyl-6-(2-(trifluoromethoxy)phenyl)thieno[2,3-d]pyrimidine-2,4(1H,3H)-dione]: less than 21 nM; for `Cc1c(-c2cccc(OC(F)(F)F)c2)sc2c1c(=O)n(CCCO)c(=O)n2C` [Compound 14, 3-(3-hydroxypropyl)-1,5-dimethyl-6-(3-(trifluoromethoxy)phenyl)thieno[2,3-d]pyrimidine-2,4(1H,3H)-dione]: 82.2 nM. `Cc1c(-c2ccc(F)c(F)c2)sc2c1c(=O)n(CCCO)c(=O)n2C` [Compound 15, 6-(3,4-difluorophenyl)-3-(3-hydroxypropyl)-1,5-dimethylthieno[2,3-d]pyrimidine-2,4(1H,3H)-dione] returned an IC50 against TRPC5 channel [2] of 112 nM. With `Cc1c(-c2ccccc2Cl)sc2c1c(=O)n(CCCO)c(=O)n2C` [Compound 16, 6-(2-chlorophenyl)-3-(3-hydroxypropyl)-1,5-dimethylthieno[2,3-d]pyrimidine-2,4(1H,3H)-dione], the IC50 at TRPC5 channel [2] is 27 nM. As to `Cc1c(-c2cccc(F)c2)sc2c1c(=O)n(CCCO)c(=O)n2C` [Compound 18, 6-(3-fluorophenyl)-3-(3-hydroxypropyl)-1,5-dimethylthieno[2,3-d]pyrimidine-2,4(1H,3H)-dione], on TRPC5 channel [2], the IC50 worked out at 27 nM. `Cc1c(-c2cccc(Cl)c2)sc2c1c(=O)n(CCCO)c(=O)n2C` [Compound 19, 6-(3-chlorophenyl)-3-(3-hydroxypropyl)-1,5-dimethylthieno[2,3-d]pyrimidine-2,4(1H,3H)-dione]: the IC50 against TRPC5 channel [2] was 226 nM. On the same count and under the same terms, the same measure for `CC(C)CC(O)c1c(-c2cccc(OC(F)(F)F)c2)sc2c1c(=O)n(CCCO)c(=O)n2C` (centres unmarked) [Compound 22, 5-(1-hydroxy-3-methylbutyl)-3-(3-hydroxypropyl)-1-methyl-6-(3-(trifluoromethoxy)phenyl) thieno[2,3-d]pyrimidine-2,4(1H,3H)-dione]: 369 nM. Compound `Cn1c(=O)n(CCCO)c(=O)c2c(Cc3ccc(Cl)cc3)c(-c3cccc(Cl)c3)sc21` [Compound 23, 5-(4-chlorobenzyl)-6-(3-chlorophenyl)-3-(3-hydroxypropyl)-1-methylthieno[2,3-d]pyrimidine-2,4(1H,3H)-dione] yielded an IC50 at TRPC5 channel [2] of 27 nM.

As to `Cn1c(=O)n(CCCO)c(=O)c2c(Cc3ccc(Cl)cc3)c(-c3ccc(Cl)cc3)sc21` [Compound 24, 5-(4-chlorobenzyl)-6-(4-chlorophenyl)-3-(3-hydroxypropyl)-1-methylthieno[2,3-d]pyrimidine-2,4(1H,3H)-dione], the IC50 is 1.84 nM on TRPC5 channel [1] and 242 nM against TRPC5 channel [2].

For `Cc1c(-c2ccc(Cl)cc2)sc2c1c(=O)n(CCCO)c(=O)n2C` [Compound 25, 6-(4-chlorophenyl)-3-(3-hydroxypropyl)-1,5-dimethylthieno[2,3-d]pyrimidine-2,4(1H,3H)-dione], the half-maximal inhibitory concentration (IC50) at TRPC5 channel [1] is 15.7 nM; against TRPC5 channel [2], 168 nM. For `O=c1c2c(Cc3ccc(Cl)cc3)c(-c3cccc(Cl)c3)oc2n(CCCO)c(=O)n1CCCO` [Compound 28, 5-(4-chlorobenzyl)-6-(3-chlorophenyl)-1,3-bis(3-hydroxypropyl)furo[2,3-d]pyrimidine-2,4(1H,3H)-dione], the concentration for half-maximal inhibition (IC50) against TRPC5 channel [2] amounted to 4330 nM.

By IC50 is commonly meant the midpoint of a concentration-inhibition curve.
